Results taken from ChEMBL document CHEMBL4842340, “Development of Cagrilintide, a Long-Acting Amylin Analogue” (J Med Chem, 2021).
pEC50, pIC50: −log10 of the molar value. Values after ≈ are worked out from the molar mass of the structure shown. *1 amine or outer side, *2 acyl side, *3 side chain or, on linkers, in order; H or OH if unused. Where a SMILES comes first, the peptide text is derived from it. Bridges are numbered along the chain shown (N, C = ends). The star is where a group is joined. C20 diacid = O=C(O)CCCCCCCCCCCCCCCCCCC(=O)*; γGlu = O=C(O)[C@H](CCC(=O)[*:2])N[*:1]

Columns and labels:
Insulin (Homo sapiens) [1] = target: Insulin (Homo sapiens) (UniProt P01308); test: Effect on insulin (unknown origin) amyloid fibril formation assessed as peptide recovery in glycyl-glycine buffer at pH 4 measured after 45 hrs by thioflavin-T fluorescence assay relative to control; design: concentration or dose not given beside the values
Sequence of Insulin (Homo sapiens) (P01308 whole entry): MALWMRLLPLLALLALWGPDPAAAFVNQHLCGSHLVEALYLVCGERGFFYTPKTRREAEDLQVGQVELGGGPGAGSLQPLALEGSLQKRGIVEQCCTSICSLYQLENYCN

Insulin (Homo sapiens) [2] = target: Insulin (Homo sapiens) (UniProt P01308); test: Effect on insulin (unknown origin) amyloid fibril formation assessed as lag time in glycyl-glycine buffer at pH 4 measured after 45 hrs by thioflavin-T fluorescence assay
Rattus norvegicus [3] = organism: Rattus norvegicus; test: Ratio of IC50 for displacement of [125I]-calcitonin from rat calcitonin receptor expressed in tk-ts 13 cells to IC50 for displacement of [125I]-amylin from rat AMY3R (CTR+RAMP3) expressed in BHK-13 cells; type: cell-based
Homo sapiens [4] = organism: Homo sapiens; test: Ratio of EC50 for human calcitonin receptor expressed in BHK570 cells to EC50 for human AMY3R (CT+RAMP3) expressed in Hollex1 cells; type: cell-based
Homo sapiens [5] = organism: Homo sapiens; test: Ratio of IC50 for displacement of [125I]-calcitonin from human calcitonin receptor expressed in tk-ts 13 cells to IC50 for displacement of [125I]-amylin from human AMY3R (CTR+RAMP3) expressed in BHK-13 cells; type: cell-based
[6] = Displacement of [125I]-amylin from rat AMY3R (CTR+RAMP3) expressed in BHK-13 cells measured after 120 mins by scintillation proximity assay; type: cell-based
[7] = Displacement of [125I]-amylin from human AMY3R (CTR+RAMP3) expressed in BHK-13 cells measured after 120 mins by scintillation proximity assay; type: cell-based
[8] = Agonist activity at human AMY3R (CT+RAMP3) expressed in Hollex1 cells incubated for 3 hrs by luminescence assay; type: cell-based; conditions: Hollex1, 3 h
[9] = Displacement of [125I]-calcitonin from rat calcitonin receptor expressed in tk-ts 13 cells measured after 120 mins by scintillation proximity assay; type: cell-based; conditions: tk-ts13
[10] = Displacement of [125I]-calcitonin from human calcitonin receptor expressed in tk-ts 13 cells measured after 120 mins by scintillation proximity assay; type: cell-based; conditions: tk-ts13
[11] = Solubility of the compound in bis-tris propane at pH 7.5 by UPLC analysis; type: physicochemical; conditions: bis-tris propane buffer
[12] = Agonist activity at rat calcitonin receptor expressed in BHK-13 cells assessed as increase in intracellular cAMP concentration incubated for 25 mins by CRE luciferase reporter gene assay; type: cell-based; conditions: BHK-13, 25 min
[13] = Solubility of the compound in bis-tris propane at pH 8 by UPLC analysis; type: physicochemical; conditions: bis-tris propane buffer
[14] = Solubility of the compound in lactate at pH 5 by UPLC analysis; type: physicochemical; conditions: lactate buffer
Rattus norvegicus [15] = organism: Rattus norvegicus; test: Ratio of EC50 for rat calcitonin receptor expressed in BHK-13 cells to EC50 for rat AMY3R (CT+RAMP3) expressed in tk-ts13 cells; type: cell-based
Rattus norvegicus [16] = test: Reduction in food intake in Sprague-Dawley rat at 3 nmol/kg, sc administered as single dose measured after 24 to 48 hrs relative to control; type: functional; design: scale not given: the % may be the effect or the level left; conditions: time 24-48 hrs
[17] = Agonist activity at rat AMY3R (CT+RAMP3) expressed in tk-ts13 cells assessed as increase in intracellular cAMP level incuabted for 25 mins by CRE luciferase reporter gene assay; type: cell-based; conditions: tk-ts13, 25 min
[18] = Solubility of the compound in lactate at pH 4 by UPLC analysis; type: physicochemical; conditions: lactate buffer
[19] = Solubility of the compound in lactate at pH 3 by UPLC analysis; type: physicochemical; conditions: lactate buffer
[20] = Agonist activity at human calcitonin receptor expressed in BHK570 cells assessed as increase in intracellular cAMP concentration incubated for 3 hrs in absence of albumin by CRE luciferase reporter gene assay; type: cell-based; conditions: BHK570, 3 h
Rattus norvegicus [21] = test: Reduction in food intake in Sprague-Dawley rat at 3 nmol/kg, sc administered as single dose measured upto 24 hrs relative to control; type: functional; design: scale not given: the % may be the effect or the level left; conditions: time hrs <=24
[22] = Solubility of the compound in bis-tris propane at pH 6.5 by UPLC analysis; type: physicochemical; conditions: bis-tris propane buffer
[23] = Solubility of the compound in bis-tris propane at pH 6 by UPLC analysis; type: physicochemical; conditions: bis-tris propane buffer
[24] = Solubility of the compound in bis-tris propane at pH 7 by UPLC analysis; type: physicochemical; conditions: bis-tris propane buffer

SMILES	Activity (Insulin (Homo sapiens) [1])	TIME (Insulin (Homo sapiens) [2])	Ratio IC50 (Rattus norvegicus [3])	Ratio EC50 (Homo sapiens [4])	Ratio IC50 (Homo sapiens [5])	pIC50 [6]	pIC50 [7]	pEC50 [8]	pIC50 [9]	pIC50 [10]	pEC50 [12]	solubility [14]	Activity (Rattus norvegicus [16])	pEC50 [17]	solubility [18]	solubility [19]	pEC50 [20]	Activity (Rattus norvegicus [21])	further results
CC[C@H](C)[C@H](NC(=O)[C@@H](CCC(=O)O)NC(=O)CNC(=O)[C@H](Cc1ccccc1)NC(=O)[C@H](CC(N)=O)NC(=O)[C@H](CC(N)=O)NC(=O)[C@H](CO)NC(=O)[C@H](CO)NC(=O)[C@H](CCCNC(=N)N)NC(=O)[C@H](Cc1cnc[nH]1)NC(=O)[C@H](CC(C)C)NC(=O)[C@H](Cc1ccccc1)NC(=O)[C@H](CCC(=O)O)NC(=O)[C@H](C)NC(=O)[C@H](CC(C)C)NC(=O)[C@H](CCCNC(=N)N)NC(=O)[C@H](CCC(N)=O)NC(=O)[C@@H](NC(=O)[C@H](C)NC(=O)[C@@H]1CSSC[C@H](NC(=O)[C@H](Cc2cnc[nH]2)NC(=O)CC[C@H](NC(=O)CCCCCCCCCCCCCCCCCCC(=O)O)C(=O)O)C(=O)N[C@@H](CC(N)=O)C(=O)N[C@@H]([C@@H](C)O)C(=O)N[C@@H](C)C(=O)N[C@@H]([C@@H](C)O)C(=O)N1)[C@H](C)O)C(=O)N[C@@H](CC(C)C)C(=O)N[C@@H](CO)C(=O)N[C@@H](CCCNC(=N)N)C(=O)N[C@H](C(=O)N[C@@H](CC(N)=O)C(=O)N[C@H](C(=O)NCC(=O)N[C@@H](CO)C(=O)N[C@@H](CC(N)=O)C(=O)N[C@H](C(=O)N[C@@H](Cc1ccc(O)cc1)C(N)=O)[C@@H](C)O)C(C)C)[C@@H](C)O	0%	0 h	3	2	2														
CC[C@H](C)[C@H](NC(=O)[C@@H]1CCCN1C(=O)CNC(=O)[C@H](Cc1ccccc1)NC(=O)[C@H](CC(N)=O)NC(=O)[C@H](CC(N)=O)NC(=O)[C@H](CO)NC(=O)[C@H](CO)NC(=O)[C@H](Cc1cnc[nH]1)NC(=O)[C@H](Cc1cnc[nH]1)NC(=O)[C@H](CC(C)C)NC(=O)[C@H](Cc1ccccc1)NC(=O)[C@H](CCC(=O)O)NC(=O)[C@H](C)NC(=O)[C@H](CC(C)C)NC(=O)[C@H](CCCNC(=N)N)NC(=O)[C@H](CCC(N)=O)NC(=O)[C@@H](NC(=O)[C@H](C)NC(=O)[C@@H]1CSSC[C@H](NC(=O)[C@H](Cc2cnc[nH]2)NC(=O)[C@H](Cc2cnc[nH]2)NC(=O)CC[C@H](NC(=O)CCCCCCCCCCCCCCCCCCC(=O)O)C(=O)O)C(=O)N[C@@H](CC(N)=O)C(=O)N[C@@H]([C@@H](C)O)C(=O)N[C@@H](C)C(=O)N[C@@H]([C@@H](C)O)C(=O)N1)[C@@H](C)O)C(=O)N[C@@H](CC(C)C)C(=O)N1CCC[C@H]1C(=O)N1CCC[C@H]1C(=O)N[C@H](C(=O)N[C@@H](CC(N)=O)C(=O)N[C@H](C(=O)NCC(=O)N[C@@H](CO)C(=O)N[C@@H](CC(N)=O)C(=O)N[C@H](C(=O)N[C@@H](Cc1ccc(O)cc1)C(N)=O)[C@@H](C)O)C(C)C)[C@@H](C)O ({C20 diacid-γGlu}-HHCNTATCATQRLAEFLHHSSNNFGPILPPTNVGSNTY-NH2; disulfide 3-8)	9%	30 h	5	2	0.3	10.32	9.44	9.99	9.66	9.95	9.66	200 µM (≈ 920 µg/mL)	22%	9.83	200 µM (≈ 920 µg/mL)	200 µM (≈ 920 µg/mL)	9.78	40%	solubility [11]: 200 µM (≈ 920 µg/mL); solubility [13]: 200 µM (≈ 920 µg/mL); Ratio EC50 (Rattus norvegicus [15]): 2
CC[C@H](C)[C@H](NC(=O)[C@@H]1CCCN1C(=O)CNC(=O)[C@H](Cc1ccccc1)NC(=O)[C@H](CC(N)=O)NC(=O)[C@H](CC(N)=O)NC(=O)[C@H](CO)NC(=O)[C@H](CO)NC(=O)[C@H](CCCNC(=N)N)NC(=O)[C@@H](NC(=O)[C@H](CC(C)C)NC(=O)[C@H](Cc1ccccc1)NC(=O)[C@H](CCC(=O)O)NC(=O)[C@H](C)NC(=O)[C@H](CC(C)C)NC(=O)[C@H](CCCNC(=N)N)NC(=O)[C@H](CCC(N)=O)NC(=O)[C@@H](NC(=O)[C@H](C)NC(=O)[C@@H]1CSSC[C@H](NC(=O)[C@H](Cc2cnc[nH]2)NC(=O)CC[C@H](NC(=O)CCCCCCCCCCCCCCCCCCC(=O)O)C(=O)O)C(=O)N[C@@H](CC(N)=O)C(=O)N[C@@H]([C@@H](C)O)C(=O)N[C@@H](C)C(=O)N[C@@H]([C@@H](C)O)C(=O)N1)[C@@H](C)O)C(C)C)C(=O)N[C@@H](CC(C)C)C(=O)N1CCC[C@H]1C(=O)N1CCC[C@H]1C(=O)N[C@H](C(=O)N[C@@H](CC(N)=O)C(=O)N[C@H](C(=O)NCC(=O)N[C@@H](CO)C(=O)N[C@@H](CC(N)=O)C(=O)N[C@H](C(=O)N[C@@H](Cc1ccc(O)cc1)C(N)=O)[C@@H](C)O)C(C)C)[C@@H](C)O ({C20 diacid-γGlu}-HCNTATCATQRLAEFLVRSSNNFGPILPPTNVGSNTY-NH2; disulfide 2-7)	2%	5 h	30	2	7	10.57	9.30	10.08	9.09	8.49		10 µM (≈ 44.5 µg/mL)	59%		200 µM (≈ 889 µg/mL)	200 µM (≈ 889 µg/mL)	9.90	56%	solubility [22]: 1 µM (≈ 4.45 µg/mL); solubility [23]: 1 µM (≈ 4.45 µg/mL); solubility [24]: 10 µM (≈ 44.5 µg/mL)
CC(C)C[C@H](NC(=O)[C@H](CCCCN)NC(=O)CNC(=O)[C@H](CC(C)C)NC(=O)[C@@H](NC(=O)[C@@H]1CSSC[C@H](N)C(=O)N[C@@H](CO)C(=O)N[C@@H](CC(N)=O)C(=O)N[C@@H](CC(C)C)C(=O)N[C@@H](CO)C(=O)N[C@@H]([C@@H](C)O)C(=O)N1)C(C)C)C(=O)N[C@@H](CO)C(=O)N[C@@H](CCC(N)=O)C(=O)N[C@@H](CCC(=O)O)C(=O)N[C@@H](CC(C)C)C(=O)N[C@@H](Cc1c[nH]cn1)C(=O)N[C@@H](CCCCN)C(=O)N[C@@H](CC(C)C)C(=O)N[C@@H](CCC(N)=O)C(=O)N[C@H](C(=O)N[C@@H](Cc1ccc(O)cc1)C(=O)N1CCC[C@H]1C(=O)N[C@@H](CCCNC(=N)N)C(=O)N[C@H](C(=O)N[C@@H](CC(N)=O)C(=O)N[C@H](C(=O)NCC(=O)N[C@@H](CO)C(=O)NCC(=O)N[C@H](C(=O)N1CCC[C@H]1C(N)=O)[C@@H](C)O)[C@@H](C)O)[C@@H](C)O)[C@@H](C)O [CALCITONIN SALMON]			1	2	1	10.55		11.70	10.52	10.18	13.00			12.00			11.52		
